# Active and inactive are the calls of the source. The rule behind the calls is not given here.
# How the values were obtained:
# Format in all cases: cell-based
# Settings in all cases: Homo sapiens
# [1] = Activation of Wnt signaling pathway in HEK293 cells assessed as increase in beta-catenin-mediated Tcf/Lef transcriptional activity at 250 nM after 24 hrs by dual luciferase reporter gene assay relative to control
# [2] = Activation of Wnt signaling pathway in HEK293 cells assessed as increase in phosphorylation at Ser9 of GSK3-beta at 250 nM after 24 hrs by Western blot analysis
# [3] = Activation of Wnt signaling pathway in HEK293 cells assessed as decrease in phosphorylation at Tyr216 of GSK3-beta at 250 nM after 24 hrs by Western blot analysis
# [4] = Activation of Wnt signaling pathway in HEK293 cells assessed as decrease in phosphorylation at […]/37/Thr41 of […] at 250 nM after 24 hrs by Western blot analysis
# [5] = Activation of Wnt signaling pathway in HEK293 cells assessed as increase in beta-catenin-mediated Tcf/Lef transcriptional activity after 24 hrs by dual luciferase reporter gene
Structure (SMILES),fold change (FC) [1],other results
CC(=O)Nc1ccc2c(c1)/C(=C1/Nc3ccccc3/C1=N\O)C(=O)N2,1.89,
CC(C)(C)C(=O)Nc1ccc2c(c1)/C(=C1/Nc3ccccc3/C1=N\O)C(=O)N2,1.51,
O=C1Nc2ccc([N+](=O)[O-])cc2/C1=C1/Nc2ccc(Br)cc2/C1=N/O,1.66,
O=Nc1c(-c2c(O)[nH]c3ccc([N+](=O)[O-])cc23)[nH]c2ccccc12,4.2,Activity [2]: Active; Activity [3]: Active; Activity [4]: Active
O=C1Nc2ccccc2/C1=C1/Nc2ccccc2C1=O,2.04,
O=C1Nc2ccc(Cl)cc2/C1=C1/Nc2ccccc2/C1=N\O,3.46,
O=C1Nc2cc(Br)ccc2/C1=C1/Nc2ccccc2/C1=N\O,2.7,Activity [5]: Dose-dependent effect
